Measurements taken from PMC11661381, “Covalent-fragment screening identifies selective inhibitors of multiple Staphylococcus aureus serine hydrolases important for growth and biofilm formation” (Research Square, 2024).

What was measured:
[1] = system: S. aureus wild type and fph transposon mutants; assay: Bacterial growth inhibition assay, S. aureus; assay type: cell-based, Staphylococcus aureus; conditions: 1–100 μM
Description: (§1) Bacteria were streaked from glycerol stocks onto agar plates and grown overnight at 37°C. A single colony was inoculated in either Tryptic Soy Broth (TSB; Sigma-Aldrich, St. Louis, MO; used for most species) or Bacto Brain Heart Infusion (BHI; Becton, Dickinson, and Company, Franklin Lakes, NJ; used for L. monocytogenes and S. pyogenes) and grown at 37°C shaking until mid-exponential phase (OD600 = 0.5), then diluted 1:10 in cation-adjusted Mueller Hinton Broth (MHB2, Millipore Sigma, Bedford, MA; used for most species) or BHI (for L. monocytogenes and S. pyogenes). 15 μl of this dilution was added to 135 μl of MHB2 or BHI in a flat-bottom clear 96-well plate for a starting inoculum of ~ 5 × 10^5 CFU/ml.
For bacterial growth inhibition assay, wild-type S. aureus and transposon mutants (fphB::Tn, fphE::Tn and fphH::Tn) were grown with compounds at final concentrations ranging from 1–100 μM and compared to growth in media with an equivalent percentage of DMSO. Each condition was plated as technical duplicates. The plate was incubated at 37°C with shaking every 15 minutes followed by measurement of OD600 for 14 hr. All growth curves were repeated at least twice and analyzed in GraphPad Prism 10.0 software. For bacterial resistance analysis, overnight culture of S. aureus Newman was diluted to an OD600 of 0.01 in MHB. This was followed by pretreatment with 20 μM N34 or equivalent DMSO volume as control. The pretreatment was allowed to proceed for 3 hr before initiating treatment with different concentrations of the test antibiotics (Table S5). The cultures were incubated overnight at 37°C, 5% CO2 before their optical density was read. The EC50 of the antibiotics against the bacteria in the presence or absence of N34 were determined by fitting the normalized data into a four-parameter logistic model in GraphPad Prism 10.0 software.

[2] = Cytotoxicity assay (CellTiter-Blue); assay type: cell-based; conditions: human; HEK293 cells, 48hr of incubation
rFphE = molecular target: T1, rFphE (Staphylococcus aureus, UniProt Q2FDS6); assay: FP-Cy5 active site labeling competition of recombinant protein, rFphE; assay type: binding
T1 construct: otherwise full-length FphE (Uniprot ID Q2FDS6) and FphH (A0A0H2XJL0) proteins; His6 (3C-cleavable, pETNKI-his-3C-LIC vector) (N); made in house; E. coli is inferred from the pET28a-type vector, IPTG induction and LB/kanamycin
T1 sequence (Q2FDS6 1-276): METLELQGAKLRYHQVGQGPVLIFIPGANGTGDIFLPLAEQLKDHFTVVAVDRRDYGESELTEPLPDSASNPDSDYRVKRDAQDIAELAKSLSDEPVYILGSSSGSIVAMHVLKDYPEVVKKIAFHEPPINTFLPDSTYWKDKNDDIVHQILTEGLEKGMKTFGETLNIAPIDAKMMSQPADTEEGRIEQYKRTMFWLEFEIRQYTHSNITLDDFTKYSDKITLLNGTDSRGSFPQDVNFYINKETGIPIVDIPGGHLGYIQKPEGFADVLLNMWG
Description: For activity-based protein labeling experiments, 500 nM of rFphB, rFphE and rFphH in 1X PBS and 0.1% Triton–X were preincubated with different concentrations of inhibitors or DMSO for 2hr at room temperature, followed by adding 300 nM of fluorophosphonate (FP) alkyne and incubated for 30 min at room temperature. Next, 20 μL of the reaction volume were mixed with 2.16 μL of freshly prepared click mix (0.5 μL of 50 mM CuSO4 in H2O, 1.16 μL of 100 mM BTTAA in DMSO, and 0.5 μL of N3-Cy5 in DMSO) and 1.16 μL of 300 mM sodium ascorbate solution in H2O. Samples were incubated at 37°C for 30 min, boiled in SDS loading buffer and analyzed by SDS–PAGE. Cy5 fluorescence was imaged using the Cy5 channel on a Typhoon 9410 Imager (Amersham Biosciences).

recombinant FphE (rFphE) = molecular target: T2, recombinant FphE (rFphE) (Staphylococcus aureus, UniProt Q2FDS6); assay: biochemical; conditions: IC50 rFphE, value in nM
T2 construct: otherwise full-length FphE (Uniprot ID Q2FDS6) and FphH (A0A0H2XJL0) proteins; His6 (3C-cleavable, pETNKI-his-3C-LIC vector) (N); made in house; E. coli is inferred from the pET28a-type vector, IPTG induction and LB/kanamycin
T2 sequence (Q2FDS6 1-276): T1 sequence (Q2FDS6 1-276)
Description: Fluorogenic substrate assays were performed as previously described[9],[11],[12]. […] Turnover rates in the linear phase of the reaction (10–20 min) were calculated using GraphPad prism 10.0 software as RFU/min. Rates were normalized by subtracting background hydrolysis rates measured for each substrate in reaction buffer in the absence of protein.
For the screening, 8 μL of enzyme solution was pipetted into the assay plates containing 50 nL compound and allowed to incubate for one hour at room temperature. […] For four-point dose response plates, 2.5, 10, 25, 50 nL droplets were transferred to get […], 10, 25, 50 μM compound concentrations in the 384 well plates again using an Echo acoustic liquid handler as above. […] Calculations were done with GraphPad Prism 10.0 software. […] IC50 values were derived from the fitted curve.

Escherichia coli = assay: Bacterial growth inhibition assay, E. coli; assay type: cell-based
Pseudomonas aeruginosa = assay: Bacterial growth inhibition assay, P. aeruginosa; assay type: cell-based
Description: as §1
For bacterial growth inhibition assay, wild-type S. aureus and transposon mutants (fphB::Tn, fphE::Tn and fphH::Tn) were grown with compounds at final concentrations ranging from 1–100 μM and compared to growth in media with an equivalent percentage of DMSO. […] All growth curves were repeated at least twice and analyzed in GraphPad Prism 10.0 software. […] The cultures were incubated overnight at 37°C, 5% CO2 before their optical density was read. The EC50 of the antibiotics against the bacteria in the presence or absence of N34 were determined by fitting the normalized data into a four-parameter logistic model in GraphPad Prism 10.0 software.

[3] = system: S. aureus biofilm formation; assay: Crystal violet biofilm inhibition assay; assay type: cell-based, Staphylococcus aureus; conditions: fphH or fphE transposon mutant
Description: Overnight cultures of S. aureus (wild-type, transposon mutants and complemented) strains (Table S3) grown in TSB, were subcultured on fresh TSB and grown to OD600 of 0.5. Biofilms were cultured in 96 well plates by transferring 1 μL of the culture to 200 μL of TSB plus 1% glucose with or without the inhibitors and incubated for 16 hours at 37°C without agitation. The inhibitor concentrations ranged from 1, 5, 10, 50 and 100 μM final concentration. Equal volume of DMSO was added as control. The wells were washed to remove the planktonic cells and the plates air-dried before staining with 200μL of 0.1% w/v crystal violet for 10 minutes at room temperature. The wells were washed to remove excess dye and blotted to dry. Each well was filled with 200μL of DMSO for 10 minutes at room temperature to dissolve the dye. The absorbance was measured at 590 nm using Spark multimode microplate reader (TECAN). The data represents n = 3 independent experiments and are expressed as a percentage of the uninhibited wild-type bacteria. All the data are normalized such that 100% represent untreated WT S. aureus. P values were determined using ordinary one-way ANOVA multiple comparisons GraphPad Prism 10.0 software. *P < 0.05, **P < 0.01, ***P < 0.001 and ****P < 0.0001.

OB(O)c1csc2ccccc12 [Z27, Benzo[b]thiophen-3-ylboronic acid]
effect on S. aureus growth (in words) [1]: reduced growth for only the fphE mutant
CC50 at 48 h [2]: > 200000 nM
concentration inhibiting FP-Cy5 labeling of rFphE (rFphE): > 50 µM
IC50 (recombinant FphE (rFphE)): 50 nM
growth defect (in words) (Escherichia coli): no significant growth defect
growth defect (in words) (Pseudomonas aeruginosa): no significant growth defect
effect on biofilm formation in transposon mutants (in words) [3]: further reduced by the inhibitor Z27 only at the highest concentrations used (50 and 100 μM)
